Measured values as given in the supplement of paper PMC11451515.

What was measured:
Conditions in all cases: 48 h
SEM cells [1] = test: AUC of viability dose-response curve (% viability x log10 dose units); higher = less sensitive
How it was run: (§1)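 Leukemia cells adapted to each medium were seeded at 500 or 1000 cells/well in 1536-well plates and dosed with library compounds in DMSO at 11 threefold doses from 47 μM to 0.79 nM for 48 h at 37°C. CellTiter-Glo One luminescence was normalised per plate to DMSO and cell-free wells, then fitted with a four-parameter log-logistic model over log10 doses. Area under the curve was taken from this fit by the trapezoidal rule, with curves above full viability scaled and curves failing quality control removed.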

NOMO1 [2] = test: as above
How it was run: as §1

P12-Ichikawa [3] = test: as above
How it was run: as §1

SEM cells [4] = test: cell viability relative to DMSO control; higher = less cytotoxic
How it was run: (§2)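 Library compounds in DMSO were pin-dosed in an 11-point threefold series (47 μM to 0.79 nM) onto leukemia cells in 1536-well plates (5 μl). Plates held 500 cells/well of NOMO1 or SEM or 1000 cells/well of P12-Ichikawa, each adapted for at least four passages in each medium. Luminescence was read with CellTiter-Glo One after 48 h at 37°C. Viability means the per-plate percentage relative to DMSO wells, using cell-free wells as background.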

NOMO1 [5] = test: as above
How it was run: as §2

P12-Ichikawa [6] = test: as above
How it was run: as §2

CN(c1ncccc1CNc1nc(Nc2ccc3c(c2)CC(=O)N3)ncc1C(F)(F)F)[S+](C)(=O)[O-]
AUC of viability dose-response curve
Conditions	NOMO1 [2]	P12-Ichikawa [3]	SEM cells [1]
HPLM + 10% dialyzed FBS	451	462	362
RPMI 5 mM glucose + 10% FBS	448	447	342
RPMI 5 mM glucose + 10% dialyzed FBS	446	459	321

cell viability [%]
Conditions	NOMO1 [5]	P12-Ichikawa [6]	SEM cells [4]
HPLM + 10% dialyzed FBS, 0.000781 µM	–	111	–
HPLM + 10% dialyzed FBS, 0.00234 µM	–	117	–
HPLM + 10% dialyzed FBS, 0.00702 µM	–	109	–
HPLM + 10% dialyzed FBS, 0.0211 µM	–	109	–
HPLM + 10% dialyzed FBS, 0.0632 µM	–	112	–
HPLM + 10% dialyzed FBS, 0.19 µM	–	112	–
HPLM + 10% dialyzed FBS, 0.569 µM	–	103	–
HPLM + 10% dialyzed FBS, 1.71 µM	–	109	–
HPLM + 10% dialyzed FBS, 5.12 µM	–	112	–
HPLM + 10% dialyzed FBS, 15.4 µM	–	101	–
HPLM + 10% dialyzed FBS, 46.1 µM	–	57.8	–
RPMI 5 mM glucose + 10% FBS, 0.000781 µM	112	111	120
RPMI 5 mM glucose + 10% FBS, 0.00234 µM	113	113	122
RPMI 5 mM glucose + 10% FBS, 0.00702 µM	115	116	140
RPMI 5 mM glucose + 10% FBS, 0.0211 µM	105	110	129
RPMI 5 mM glucose + 10% FBS, 0.0632 µM	116	121	129
RPMI 5 mM glucose + 10% FBS, 0.19 µM	116	113	92.7
RPMI 5 mM glucose + 10% FBS, 0.569 µM	99.3	114	99
RPMI 5 mM glucose + 10% FBS, 1.71 µM	103	114	91.3
RPMI 5 mM glucose + 10% FBS, 5.12 µM	97.7	100	13
RPMI 5 mM glucose + 10% FBS, 15.4 µM	93.9	88.9	18.9
RPMI 5 mM glucose + 10% FBS, 46.1 µM	18.7	50.1	4.29
RPMI 5 mM glucose + 10% dialyzed FBS, 0.000781 µM	104	115	112
RPMI 5 mM glucose + 10% dialyzed FBS, 0.00234 µM	107	118	125
RPMI 5 mM glucose + 10% dialyzed FBS, 0.00702 µM	116	117	122
RPMI 5 mM glucose + 10% dialyzed FBS, 0.0211 µM	106	114	119
RPMI 5 mM glucose + 10% dialyzed FBS, 0.0632 µM	117	117	140
RPMI 5 mM glucose + 10% dialyzed FBS, 0.19 µM	117	108	119
RPMI 5 mM glucose + 10% dialyzed FBS, 0.569 µM	124	114	111
RPMI 5 mM glucose + 10% dialyzed FBS, 1.71 µM	104	114	17.1
RPMI 5 mM glucose + 10% dialyzed FBS, 5.12 µM	114	110	11.8
RPMI 5 mM glucose + 10% dialyzed FBS, 15.4 µM	86.5	105	11.6
RPMI 5 mM glucose + 10% dialyzed FBS, 46.1 µM	20.6	48.2	3.18

CC(NC1=CC=CC=C1)C\2=C\C(=C/N3C(=O)\C=C(/N=C23)N4CCOCC4)C (centres undefined)
AUC of viability dose-response curve
Conditions	NOMO1 [2]	P12-Ichikawa [3]	SEM cells [1]
HPLM + 10% dialyzed FBS	466	470	475
RPMI 5 mM glucose + 10% FBS	451	456	451
RPMI 5 mM glucose + 10% dialyzed FBS	462	466	447

cell viability [%]
Conditions	NOMO1 [5]	P12-Ichikawa [6]	SEM cells [4]
HPLM + 10% dialyzed FBS, 0.000781 µM	91.6	101	96.9
HPLM + 10% dialyzed FBS, 0.00234 µM	106	100	86.4
HPLM + 10% dialyzed FBS, 0.00702 µM	115	107	108
HPLM + 10% dialyzed FBS, 0.0211 µM	105	110	99.1
HPLM + 10% dialyzed FBS, 0.0632 µM	114	109	101
HPLM + 10% dialyzed FBS, 0.19 µM	117	110	108
HPLM + 10% dialyzed FBS, 0.569 µM	125	115	107
HPLM + 10% dialyzed FBS, 1.71 µM	118	115	108
HPLM + 10% dialyzed FBS, 5.12 µM	108	110	103
HPLM + 10% dialyzed FBS, 15.4 µM	99.6	106	97.3
HPLM + 10% dialyzed FBS, 46.1 µM	87.6	101	86.5
RPMI 5 mM glucose + 10% FBS, 0.000781 µM	92.7	95.9	99.1
RPMI 5 mM glucose + 10% FBS, 0.00234 µM	96.3	98	101
RPMI 5 mM glucose + 10% FBS, 0.00702 µM	97.7	97.4	117
RPMI 5 mM glucose + 10% FBS, 0.0211 µM	109	98.1	126
RPMI 5 mM glucose + 10% FBS, 0.0632 µM	109	102	103
RPMI 5 mM glucose + 10% FBS, 0.19 µM	102	110	101
RPMI 5 mM glucose + 10% FBS, 0.569 µM	115	115	128
RPMI 5 mM glucose + 10% FBS, 1.71 µM	99.8	113	119
RPMI 5 mM glucose + 10% FBS, 5.12 µM	108	101	117
RPMI 5 mM glucose + 10% FBS, 15.4 µM	105	112	101
RPMI 5 mM glucose + 10% FBS, 46.1 µM	108	102	12.2
RPMI 5 mM glucose + 10% dialyzed FBS, 0.000781 µM	95.7	88.6	95.3
RPMI 5 mM glucose + 10% dialyzed FBS, 0.00234 µM	92.9	93.6	79.7
RPMI 5 mM glucose + 10% dialyzed FBS, 0.00702 µM	111	114	113
RPMI 5 mM glucose + 10% dialyzed FBS, 0.0211 µM	110	110	106
RPMI 5 mM glucose + 10% dialyzed FBS, 0.0632 µM	105	99.1	94.3
RPMI 5 mM glucose + 10% dialyzed FBS, 0.19 µM	116	115	73.8
RPMI 5 mM glucose + 10% dialyzed FBS, 0.569 µM	109	110	101
RPMI 5 mM glucose + 10% dialyzed FBS, 1.71 µM	108	116	110
RPMI 5 mM glucose + 10% dialyzed FBS, 5.12 µM	94.7	105	98.3
RPMI 5 mM glucose + 10% dialyzed FBS, 15.4 µM	96.7	106	87.3
RPMI 5 mM glucose + 10% dialyzed FBS, 46.1 µM	83	111	53.8
